For assay [1], the target named is T1, BK receptors in human ciliary muscle cells (h-CM) (Homo sapiens, UniProt P30411).
T1 construct: h-CM cells expressing BK receptors were seeded; endogenous in cells; host or cells: human ciliary muscle (h-CM) cells
T1 sequence (P30411 1-391): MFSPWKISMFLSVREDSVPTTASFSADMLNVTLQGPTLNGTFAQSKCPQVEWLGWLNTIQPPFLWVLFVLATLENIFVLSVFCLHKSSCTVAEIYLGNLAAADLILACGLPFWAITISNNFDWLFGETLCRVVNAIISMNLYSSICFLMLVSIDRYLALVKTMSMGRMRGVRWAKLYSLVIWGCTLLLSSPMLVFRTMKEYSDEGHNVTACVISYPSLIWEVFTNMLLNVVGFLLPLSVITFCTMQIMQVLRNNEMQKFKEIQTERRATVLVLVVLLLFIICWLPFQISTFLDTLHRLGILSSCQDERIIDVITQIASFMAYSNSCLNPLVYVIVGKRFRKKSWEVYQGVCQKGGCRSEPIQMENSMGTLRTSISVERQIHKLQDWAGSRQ
Kind of assay: Functional assay measuring [Ca2+]i mobilization (FLIPR) in h-CM cells. Type of assay: cell-based. The conditions noted are these: class symbols (in μM), read-out: CaM (EC50). An outline of the steps:
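Human ciliary muscle cells loaded 1 h at 23 °C with FLIPR calcium dye in HBSS, 20 mM HEPES, 2.5 mM probenecid, pH 7.4. EC50 by 4-parameter fit.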

The subject of assay [2] is primary human ciliary muscle cells (h-CM). Briefly: Total prostaglandin (PG) release from primary h-CM cells (EIA). The class given is cell-based. The conditions noted are these: Homo sapiens, 1 h, 1 hour at 37° C., class symbols (in μM). An outline of the steps: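 Confluent primary h-CM cells, serum-starved (0.8% FBS) 24 h, were exposed to a 9-point concentration series (0.1 nM-10 μM) of bradykinin or BK agonist for 1 hour at 37° C. Total PG released was then quantified by EIA.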

Assay [3] addresses T2, recombinant human bradykinin B2 receptor (Homo sapiens, UniProt P30411).
T2 construct: expressed in transfected cells; host or cells: Chinese hamster ovary (CHO) cells, membrane homogenates
T2 sequence (P30411 1-391): T1 sequence (P30411 1-391)
Kind of assay: [3H]-BK competition radioligand binding to human cloned B2 receptor (CHO cell membranes). The conditions noted are these: 0.2 nM [3H]-bradykinin, CHO membranes, 60 min 23° C.; mean ± SEM or single value; Ki from IC50 by Cheng-Prusoff; read-out: [3H]-BK Binding to Human Cloned B2 Receptor (Ki).

With `COc1nc2c(OCc3c(C)ccc(N(C)C(=O)CNC(=O)CCc4cnc5[nH]c(=O)oc5c4)c3C)cccc2n1Cc1ccccn1` [Compound 3, N-(2-((3-(((2-methoxy-1-(pyridin-2-ylmethyl)-1H-benzo[d]imidazol-4-yl)oxy)methyl)-2,4-dimethylphenyl)(methyl)amino)-2-oxoethyl)-3-(2-oxo-2,3-dihydrooxazolo[4,5-b]pyridin-6-yl)propanamide], the EC50 was below 0.1 µM in assay [1] and above 1 µM in assay [2]. Besides, in assay [3], the Ki came out at 273 nM.
On to `CNC(=O)[C@@H]1CN(CC(=O)NCC(=O)N(C)c2ccc(Cl)c(COc3cccc4c3nc(OC)n4Cc3ccccn3)c2Cl)CCO1` [Compound 45, (S)-4-(2-((2-((2,4-dichloro-3-(((2-methoxy-1-(pyridin-2-ylmethyl)-1H-benzo[d]imidazol-4-yl)oxy)methyl)phenyl)(methyl)amino)-2-oxoethyl)amino)-2-oxoethyl)-N-methylmorpholine-2-carboxamide], for which the half-maximal effective concentration (EC50) in assay [1] and in assay [2] was below 0.1 µM in each case. The Ki in assay [3] came out at 40 nM.
For `CNC(=O)N1CCN(CC(F)(F)C(=O)NCC(=O)N(C)c2ccc(Cl)c(COc3cccc4c3nc(OC)n4Cc3ccccn3)c2Cl)CC1` [Compound 40, 4-(3-((2-((2,4-dichloro-3-(((2-methoxy-1-(pyridin-2-ylmethyl)-1H-benzo[d]imidazol-4-yl)oxy)methyl)phenyl)(methyl)amino)-2-oxoethyl)amino)-2,2-difluoro-3-oxopropyl)-N-methylpiperazine-1-carboxamide], the results for the EC50 in assay [1] and in assay [2] were below 0.1 µM and 0.1 to 1 µM, respectively. In addition, the Ki in assay [3] is 450 nM.
Turning to `COc1nc2c(OCc3c(Cl)ccc(N(C)C(=O)CNC(=O)CN4CCOC(C(=O)NCCO)C4)c3Cl)cccc2n1Cc1ccccn1` (stereo not drawn) [Compound 80], the EC50 was below 0.1 µM in assay [1] and 0.1 to 1 µM in assay [2]. For the same compound, the Ki in assay [3] worked out at 279 nM.
In the case of `CNC(=O)c1ccc(CCC(=O)NCC(=O)N(C)c2ccc(Cl)c(COc3cccc4c(OCc5nccn5C)cc(C)nc34)c2Cl)cc1` [Compound 71], the EC50 in assay [1] and in assay [2] was below 0.1 µM each time. Besides, the Ki in assay [3] stood at 17 nM.
In the case of `CNC(=O)c1ccc(CCC(=O)NCC(=O)N(C)c2ccc(Cl)c(COc3cccc4c3nc(OC)n4Cc3nccn3C)c2Cl)cc1` [Compound 82], the EC50 in assay [1] was below 0.1 µM; in assay [2] it was above 1 µM. Also, the Ki in assay [3] stood at 205 nM.
For `CNC(=O)[C@H]1CCCN(CC(=O)NCC(=O)N(C)c2ccc(Cl)c(COc3cccc4c3nc(OC)n4Cc3ccccn3)c2Cl)C1` [Compound 36, (S)-1-(2-(2-((2,4-dichloro-3-((2-methoxy-1-(pyridin-2-ylmethyl)-1H-benzo[d]imidazol-4-yloxy)methyl)phenyl)(methyl)amino)-2-oxoethylamino)-2-oxoethyl)-N-methylpiperidine-3-carboxamide], in that order: below 0.1 µM, 0.1 to 1 µM and 220 nM.
In the case of `COC(=O)c1ccc(CCC(=O)NCC(=O)N(C)c2ccc(Cl)c(COc3cccc4c3nc(OC)n4Cc3ccccn3)c2Cl)cc1` [Compound 37, methyl 4-(3-(2-((2,4-dichloro-3-((2-methoxy-1-(pyridin-2-ylmethyl)-1H-benzo[d]imidazol-4-yloxy)methyl)phenyl)(methyl)amino)-2-oxoethylamino)-3-oxopropyl)benzoate], the EC50 in assay [1] and in assay [2] was below 0.1 µM throughout. Further, the Ki in assay [3] was found to be 55.2 nM.
As to `COC(=O)Nc1ccc(CCC(=O)NCC(=O)N(C)c2ccc(C)c(COc3cccc4c3nc(OC)n4Cc3ccccn3)c2C)cn1` [Compound 4, methyl (5-(3-((2-((3-(((2-methoxy-1-(pyridin-2-ylmethyl)-1H-benzo[d]imidazol-4-yl)oxy)methyl)-2,4-dimethylphenyl)(methyl)amino)-2-oxoethyl)amino)-3-oxopropyl)pyridin-2-yl)carbamate], the figures for the EC50 in assay [1] and in assay [2] were 0.1 to 1 µM and above 1 µM, respectively. Moreover, the Ki in assay [3] is 158 nM.
Turning to `COc1nc2c(OCc3c(Cl)ccc(N(C)C(=O)CNC(=O)[C@@H]4CCN(C(=O)OC(C)(C)C)C4)c3Cl)cccc2n1Cc1ccccn1` [Compound 62], the half-maximal effective concentration (EC50) was below 0.1 µM in assay [1] and 0.1 to 1 µM in assay [2]. Besides, the Ki in assay [3] was 105 nM.
For the compound `COc1nc2c(OCc3c(Cl)ccc(N(C)C(=O)CNC(=O)CCC4CN=C(NC(C)=O)NC4)c3Cl)cccc2n1Cc1ccccn1` (stereo not drawn) [Compound 25, 3-(2-acetamido-1,4,5,6-tetrahydropyrimidin-5-yl)-N-(2-((2,4-dichloro-3-(((2-methoxy-1-(pyridin-2-ylmethyl)-1H-benzo[d]imidazol-4-yl)oxy)methyl)phenyl)(methyl)amino)-2-oxoethyl)propanamide], the EC50 in assay [1] is below 0.1 µM; in assay [2], 0.1 to 1 µM. The Ki in assay [3] is 74 ± 6 nM.
As for `CNC(=O)N1CCN(CCC(=O)NCC(=O)N(C)c2ccc(Cl)c(COc3cccc4c3nc(OC)n4Cc3ccccn3)c2Cl)CC1` [Compound 7, 4-(3-((2-((2,4-dichloro-3-(((2-methoxy-1-(pyridin-2-ylmethyl)-1H-benzo[d]imidazol-4-yl)oxy)methyl)phenyl)(methyl)amino)-2-oxoethyl)amino)-3-oxopropyl)-N-methylpiperazine-1-carboxamide], the EC50 in assay [1] and in assay [2] was below 0.1 µM throughout. Moreover, the inhibition constant (Ki) in assay [3] amounted to 118 ± 2 nM.
In the case of `CNC(=O)N1CCOC(CC(=O)NCC(=O)N(C)c2ccc(Cl)c(COc3cccc4c3nc(OC)n4Cc3ccccn3)c2Cl)C1` (stereo not drawn) [Compound 79], the results for the 50% effective concentration (EC50) in assay [1] and in assay [2] were 0.1 to 1 µM and above 1 µM, respectively. In addition, the Ki in assay [3] was 859 nM.
As for `COc1nc2c(OCc3c(Cl)ccc(N(C)C(=O)CNC(=O)CN4CCO[C@@H](C(=O)NC5CC5)C4)c3Cl)cccc2n1Cc1ccccn1` [Compound 84], the EC50 in assay [1] and in assay [2] was below 0.1 µM in each case. In addition, the Ki in assay [3] was 78.3 nM.

These data come from US8252793B2, “Bradykinin receptor agonists and uses thereof to treat ocular hypertension and glaucoma” (Alcon Research, Ltd., priority 2010, dated 2012).
